The subject of data set [1] is PANC-1 cell line. Briefly: cells. The conditions noted are these: for fold decrease in PANC-1 potency (PP<) relative to makaluvamine J (9) / fold decrease in PANC-1 potency (PP<) relative to makaluvamine A (1): '<' in PP codes a decrease in potency; for PANC-1 cytotoxic potency (words): PANC-1 (set of b111: PANC-1 and/or OVCAR tumor cells). The text has this: The task of IC50 assessment for the natural products isolated in this study against the PANC-1 tumor cells line began immediately following the purification and characterization of each pyrrolo[4,3,2-de]quinoline obtained (FIG. 3). […] However, a sample of ammosamide B (17) was obtained from the NCI Molecular Targets Laboratory. Two additional clinically used compounds, etoposide and teniposide were also run in the assay.
The soft agar disk diffusion assay, IC50 determination, and clonogenic assay were performed as previously described.

For the next data set, the system named is KB xenografts. The following applies: KB mouse model xenografts, ref [9]; cited from earlier work.
Data set [2] deals with PANC-1 cell line. The conditions noted are these: cited from earlier work; for IC50: read-out: PANC-1 IC50, PANC-1, literature data, refs [25], [26], [30].
Data set [3] concerns OVCAR-5. The following applies: second value of OVCAR-3/-5 cell, ref [9], NCI-DTP database; cited from earlier work.
For a further data set, the system named is OVCAR-3. The following applies: first value of OVCAR-3/-5 cell, refs [9], [38], NCI-DTP database; cited from earlier work.
For the next data set, the system named is HCT-116 cells. Briefly: Clonogenic dose-response assay, continuous exposure. The data set is classed as cell-based. An excerpt: FIG. 7 Evaluation of makaluvamine J (9) through clonogenic dose-response evaluation employing HCT-116 cells. Continuous exposure of the cells with 9 at different concentrations during periods of: 2 hr, 24 hr, or 120 hr. Efficacy is indicated when the surviving fraction is less than 0.1.
Accurate determination of the exposures required to achieve a useful in vivo therapeutic effect is the outcome being sought through clonogenic study. Illustrated here are data measuring the cytotoxic effect of makaluvamine J (9) at varying concentrations during continuous exposure. Other relevant data to be obtained in the future consists of: (a) repeating the clonogenic runs on makaluvamine acetate J (15), (b) obtaining the maximum tolerated dose (MTD) for both, and (c) assessing the pharmacokinetic behavior of these compounds measured in both plasma and tumors, (PANC-1 and OVC-5) at the MTD which will be tracked through by MS^2 data. The key measurement involved determining the required time-concentration profile to obtain a 90% kill (10% survival-S10) of tumor cells. […] At this juncture it appears that a chronic exposure for five days will be effective and the exact therapeutics regime will depend on the MTD determination data and future pharmacokinetic results.

Data set [4] deals with OVCAR-5. Kind of data set: IC50 determination against OVCAR-5 ovarian cancer cell line. The data set is classed as cell-based, human. The following applies: for IC50: OVCAR-5, values of the text.
Method: The soft agar disk diffusion assay, IC50 determination, and clonogenic assay were performed as previously described [35].
Setting [5] is: read-out: PANC-1 IC50, PANC-1 pancreatic tumor cell line.
Where [6] appears, read: Homo sapiens, PANC-1, read-out: PANC-1 IC50, PANC-1 pancreatic tumor cell line.

This is an account of results in US11020488B2, “Pyrroloquinolin compounds and methods of using same” (The Regents of the University of California, priority 2017, dated 2021).

Read-outs that look alike come from different tables or passages of the source.

What is called IC50 is the concentration needed to halve the response being measured. As for `CN1CCc2cn(C)c3c2C1=CC(=O)C3=O` [damirone A (5), damirone A], in the data set on PANC-1 cell line [1] (setting [5]), the half-inhibitory concentration (IC50) came out at 160000 nM.

Turning to `C[N+]1=C2C=C(N/C=C/c3ccc(O)cc3)C(=O)c3[nH]cc(c32)CC1.O=C([O-])C(F)(F)F` [makaluvamine L (11), makaluvamine L], the “fold decrease in PANC-1 potency (PP<) relative to makaluvamine J (9)” value in the data set on PANC-1 cell line [1] (ratio of PANC-1 IC50) is recorded as 35.0 fold. Moreover, the IC50 with PANC-1 cell line [1] (setting [5]) came to 1900 nM.

Turning to makaluvamine I [reference compound], in the data set with KB xenografts, the “T/C % (tumor volume in treated/tumor volume in untreated)” value is recorded as 34%.

Consider damirone D [damirone D (6)], for which, in the data set with PANC-1 cell line [1] (setting [5]), the IC50 was determined as 3400 nM.

For the molecule `N=C1C(Cl)=C(N)C(=O)c2[nH]cc(C(O)CO)c21` (stereo not drawn) [secobatzelline A], the “cytotoxicity against PANC-1 cells (words)” value (from here on “cytotoxicity”) with PANC-1 cell line [2] (literature surveys) is “moderate cytotoxicity”.

Take “9-N-acetyl makaluvamine B [9-N-acetyl makaluvamine B (14)]”: the “fold decrease in PANC-1 potency (PP<) relative to makaluvamine A (1)” value with PANC-1 cell line [1] (ratio of PANC-1 IC50) is greater than 200 fold. The IC50 in the data set with PANC-1 cell line [1] (setting [5]) worked out at 91000 nM.

Consider `Cn1cc2c3c1C(=O)C(N)=CC3=[N+](C)CC2.O=C([O-])C(F)(F)F` [makaluvamine H (4), makaluvamine H], for which the IC50 is 100 nM with OVCAR-5 [3], 960 nM with OVCAR-3 and 3600 nM in the data set on PANC-1 cell line [1] (setting [5]). Besides, the “T/C % (tumor volume in treated/tumor volume in untreated)” value with KB xenografts is on record as 38%. Moreover, in the data set on PANC-1 cell line [1] (ratio of PANC-1 IC50), the “fold decrease in PANC-1 potency (PP<) relative to makaluvamine A (1)” value stood at 7.9 fold.

`COc1cc([C@@H]2c3cc4c(cc3[C@@H](O[C@@H]3O[C@@H]5CO[C@@H](C)O[C@H]5[C@H](O)[C@H]3O)[C@H]3COC(=O)[C@H]23)OCO4)cc(OC)c1O` [etoposide, reference compound]: in the data set with PANC-1 cell line [1] (setting [6]), the IC50 is 390 nM.

`CSc1c2ccnc3c2c(n1C)C(=O)C(N)=C3Cl` [isobatzelline D]: the “cytotoxicity” value in the data set on PANC-1 cell line [2] (literature surveys) is given as “moderate cytotoxicity”.

Turning to “8,15-O-diacetyl-8-hydroxy-5a,7,8a-trien-makaluvamine J”, the “fold decrease in PANC-1 potency (PP<) relative to makaluvamine J (9)” value with PANC-1 cell line [1] (ratio of PANC-1 IC50) is listed as roughly 10 fold. For the same molecule, the IC50 with PANC-1 cell line [1] (setting [5]) amounted to 590 nM.

Take `COc1cc([C@@H]2c3cc4c(cc3[C@@H](O[C@@H]3O[C@@H]5CO[C@@H](c6cccs6)O[C@H]5[C@H](O)[C@H]3O)[C@H]3COC(=O)[C@H]23)OCO4)cc(OC)c1O` [teniposide, reference compound]: the IC50 turned out to be 40 nM in the data set with PANC-1 cell line [1] (setting [6]) and 41 nM in the data set with PANC-1 cell line [1] (setting [5]).

As to `Nc1ccn([C@@H]2O[C@H](CO)[C@@H](O)C2(F)F)c(=O)n1` [gemcitabine], in the data set with PANC-1 cell line [2], the half-inhibitory concentration (IC50) was 7200 nM.

`C[N+]1=C2C=C(N)C(=O)c3[nH]cc(c32)CC1.[Cl-]` [makaluvamine C (2), makaluvamine C]: the IC50 in the data set on OVCAR-3 is 240 nM; in the data set with PANC-1 cell line [1] (setting [5]), 730 nM. The “fold decrease in PANC-1 potency (PP<) relative to makaluvamine J (9)” value with PANC-1 cell line [1] (ratio of PANC-1 IC50) came out at 13.5 fold.

As for `C[N+]1=C2C=C(NCCc3ccc(O)cc3)C(=O)c3[nH]cc(c32)CC1` [makaluvamine J (9), makaluvamine J], the “2S10, concentration for 90% kill (10% survival)” value in the data set on HCT-116 cells (HCT-116, 2 h exposure, extrapolated) is 3 µg/mL. Moreover, in the data set with HCT-116 cells (HCT-116, 24 h exposure), the “24S10, concentration for 90% kill (10% survival)” value is on record as 400 ng/mL. For the same molecule, the “120S10, concentration for 90% kill (10% survival)” value with HCT-116 cells (HCT-116, 120 h exposure) came to 30 ng/mL. Moreover, in the data set with HCT-116 cells (two hour dosing schedule), the “toxicity to HCT-116 cells” value is listed as “Little toxicity”. For the same molecule, the “PANC-1 cytotoxic potency (words)” value in the data set on PANC-1 cell line [1] is “most potent”; with PANC-1 cell line [1] (listed as 9), “most potent IC50 values”. In addition, the IC50 with PANC-1 cell line [1] (setting [5]) was 54 nM; with OVCAR-5 [4], 120 nM.

With `Cn1cc2c3c1C(=O)C(N/C=C/c1ccc(O)cc1)=CC3=[N+](C)CC2` [makaluvamine G (8), makaluvamine G], in the data set with PANC-1 cell line [1] (setting [5]), the IC50 came to 6200 nM.

In the case of `Cn1cc2c3c1C(=O)C(N)=C(Cl)C3=NCC2` [isobatzelline C (19), isobatzelline C], the “cytotoxicity” value with PANC-1 cell line [2] (literature surveys, listed as 19) is “relatively inactive”; in the data set on PANC-1 cell line [2] (literature surveys, listed as isobatzelline C), “moderate cytotoxicity”. Moreover, the IC50 in the data set on PANC-1 cell line [2] is 10000 nM.

In the case of `O=C1C(NCc2ccc(F)cc2)=CC2=NCCc3c[nH]c1c32` [FBA-TBQ (18), 7-(4-fluorobenzylamino)-1,3,4,8-tetrahydropyrrolo[4,3,2-de]quinolin-8(1H)-one, reference compound], the values for the IC50 with OVCAR-3 and in the data set on PANC-1 cell line [2] were 950 nM and 110 nM, respectively. The “less potent than makaluvamine J (9) against PANC-1” value in the data set on PANC-1 cell line [1] (comparison of PANC-1 IC50 with 9) was roughly 50%. Moreover, the “cytotoxicity” value with PANC-1 cell line [2] is listed as “moderate cytotoxicity”.

Consider `Cn1cc2c3c1C(=O)C(NCCc1ccc(O)cc1)=CC3=NCC2` [makaluvamine K (10), makaluvamine K], for which, in the data set with PANC-1 cell line [1] (ratio of PANC-1 IC50), the “fold decrease in PANC-1 potency (PP<) relative to makaluvamine A (1)” value is recorded as 1.2 fold and the “fold decrease in PANC-1 potency (PP<) relative to makaluvamine J (9)” value is 10.4 fold. Moreover, the IC50 with PANC-1 cell line [1] (setting [5]) is 560 nM.

With `CN1CCc2c[nH]c3c2C1=CC(=O)C3=O` [damirone B (3), damirone B], in the data set on PANC-1 cell line [1] (setting [5]), the IC50 turned out to be 19000 nM.

On to makaluvamine D [makaluvamine D (7)], for which the IC50 with PANC-1 cell line [1] (setting [5]) was found to be 290 nM.

Consider `Cn1cc2c3c1C(=O)C(N)=CC3=NCC2` [makaluvamine A (1), makaluvamine A], for which, in the data set on PANC-1 cell line [1] (setting [5]), the IC50 worked out at 450 nM.

On to `CN1C(=O)c2cc(C(N)=O)nc3c(N)c(Cl)c(N)c1c23` [ammosamide B (17), ammosamide B, reference compound], for which the IC50 with PANC-1 cell line [1] (setting [5]) was 26000 nM.

In the case of `CSc1c2c3c(n1C)C(=O)C(N)=C(Cl)C3=NCC2` [isobatzelline A], in the data set on PANC-1 cell line [2] (literature surveys), the “cytotoxicity” value is listed as “moderate cytotoxicity”.

For the molecule “15-O-acetyl makaluvamine J [15-O-acetyl makaluvamine J (15)]”, the “PANC-1 cytotoxic potency (words)” value in the data set on PANC-1 cell line [1] was “most potent IC50 values”. Further, the “fold decrease in PANC-1 potency (PP<) relative to makaluvamine J (9)” value in the data set on PANC-1 cell line [1] (ratio of PANC-1 IC50) turned out to be 1.5 fold. Moreover, the results for the IC50 in the data set with PANC-1 cell line [1] (setting [5]) and with OVCAR-5 [4] were 81 nM and 8.6 nM, respectively. Moreover, the “fold increase in OVCAR-5 potency over makaluvamine J (9)” value with OVCAR-5 [4] (ratio of OVCAR-5 IC50) came to 14 fold.

Regarding `Cn1cc2c3c1C(=O)C(NCCc1ccc(O)cc1)=CC3=[N+](C)CC2.[Cl-]` [makaluvamine P (12), makaluvamine P], the “fold increase in PANC-1 potency (PP>) relative to makaluvamine H (4)” value with PANC-1 cell line [1] (ratio of PANC-1 IC50, '>' in PP codes an increase in potency) worked out at 12.3. In addition, the IC50 in the data set with PANC-1 cell line [1] (setting [5]) worked out at 300 nM.
